In publication PMC7950324, “A general method for quantifying ligand binding to unmodified receptors using Gaussia luciferase” (The Journal of Biological Chemistry, 2021):
Like-named read-outs stand apart in the source and are kept apart here.

How the values were obtained:
ɑ1AAR [1] = molecular target: T1, ɑ1AAR (Homo sapiens, UniProt P35348); assay: α1AAR ligand screening, plasma membrane–ligand BRET (α1AAR with GLuc–PM); settings: for inhibition at 10 µM: 20 min
GLuc–ɑ1AAR = molecular target: T2, GLuc–ɑ1AAR (Homo sapiens, UniProt P35348); assay: Receptor–ligand BRET equilibrium binding, GLuc–α1AAR in HEK 293T cells
T2 construct: Gaussia luciferase signal peptide (N); […]; expressed in transfected cells; host or cells: HEK 293T

ɑ1AAR [2] = molecular target: T1, ɑ1AAR; assay: PM–ligand BRET equilibrium binding, α1AAR with GLuc–PM; design: expressed in transfected cells; host or cells: HEK 293T
AT1R [3] = molecular target: T3, AT1R (Rattus norvegicus, UniProt P25095); assay: PM–ligand BRET equilibrium binding, untagged AT1R with GLuc–PM; settings: two site competitive fit
T3 construct: expressed in transfected cells; host or cells: HEK 293T
T3 sequence (P25095 1-359): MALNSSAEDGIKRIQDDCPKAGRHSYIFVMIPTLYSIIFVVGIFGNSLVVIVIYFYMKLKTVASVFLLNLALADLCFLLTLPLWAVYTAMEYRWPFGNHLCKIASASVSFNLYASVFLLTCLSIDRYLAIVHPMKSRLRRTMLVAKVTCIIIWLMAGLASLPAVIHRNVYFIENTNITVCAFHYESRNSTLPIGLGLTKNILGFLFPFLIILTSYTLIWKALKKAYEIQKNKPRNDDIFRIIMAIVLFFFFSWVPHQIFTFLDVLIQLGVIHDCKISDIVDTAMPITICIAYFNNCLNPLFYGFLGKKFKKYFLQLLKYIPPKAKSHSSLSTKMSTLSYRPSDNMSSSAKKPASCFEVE

NanoLuc–AT1R = molecular target: T4, NanoLuc–AT1R (Rattus norvegicus, UniProt P25095); assay: Receptor–ligand BRET equilibrium binding, NanoLuc–AT1R in HEK 293T cells; settings: 1 μM TAMRA–AngII, two site competitive fit, 2 h room temperature
T4 construct: secretion signal peptide of interleukin-6 (N); expressed in transfected cells; host or cells: HEK 293T
T4 sequence (P25095 1-359): T3 sequence (P25095 1-359)

GLuc–AT1R [4] = molecular target: T5, GLuc–AT1R (Rattus norvegicus, UniProt P25095); assay: Receptor–ligand BRET equilibrium binding, GLuc–AT1R in HEK 293T cells; settings: 1 μM TAMRA–AngII, two site competitive fit, 2 h room temperature
T5 construct: Gaussia luciferase signal peptide (N); expressed in transfected cells; host or cells: HEK 293T
T5 sequence (P25095 1-359): T3 sequence (P25095 1-359)

AT1R [5] = molecular target: T3, AT1R; assay: PM–ligand BRET equilibrium binding, untagged AT1R with NanoLuc–PM; settings: 1 μM TAMRA–AngII, two site competitive fit
GLuc–AT1R [6] = molecular target: T5, GLuc–AT1R; assay: Kinetic receptor–ligand BRET, GLuc–AT1R; assay type: binding
AT1R [7] = molecular target: T3, AT1R; assay: Kinetic PM–ligand BRET, AT1R with GLuc–PM; assay type: binding
[8] = molecular target: AT1 angiotensin receptor (AT1R), untagged, rat (rat) (UniProt P25095); assay: FRET or BRET; PM‒ligand (bystander) BRET with GLuc‒PM, equilibrium competition: live HEK 293T cells with unmodified receptor, GLuc‒PM and DN-Dyn; a fixed fluorescent ligand (1 μM TAMRA‒AngII, 300 ng/ml biotinylated EGF on Alexa Fluor 488 streptavidin, or 100 μg/ml Alexa Fluor 488 human transferrin) and increasing unlabeled ligand, 2 h at room temperature
[9] = molecular target: AT2 angiotensin receptor (AT2R), untagged, rat (rat) (UniProt P35351); assay: as above
[10] = read-out: plasma membrane-ligand BRET decrease (%) Replicate1
[11] = read-out: plasma membrane-ligand BRET decrease (%) Replicate2
[12] = 375 nM BODIPY FL–prazosin, one site competitive fit, receptor–ligand BRET
[13] = 375 nM BODIPY FL–prazosin, one site competitive fit, PM–ligand BRET

T2 sequence (P35348 whole entry): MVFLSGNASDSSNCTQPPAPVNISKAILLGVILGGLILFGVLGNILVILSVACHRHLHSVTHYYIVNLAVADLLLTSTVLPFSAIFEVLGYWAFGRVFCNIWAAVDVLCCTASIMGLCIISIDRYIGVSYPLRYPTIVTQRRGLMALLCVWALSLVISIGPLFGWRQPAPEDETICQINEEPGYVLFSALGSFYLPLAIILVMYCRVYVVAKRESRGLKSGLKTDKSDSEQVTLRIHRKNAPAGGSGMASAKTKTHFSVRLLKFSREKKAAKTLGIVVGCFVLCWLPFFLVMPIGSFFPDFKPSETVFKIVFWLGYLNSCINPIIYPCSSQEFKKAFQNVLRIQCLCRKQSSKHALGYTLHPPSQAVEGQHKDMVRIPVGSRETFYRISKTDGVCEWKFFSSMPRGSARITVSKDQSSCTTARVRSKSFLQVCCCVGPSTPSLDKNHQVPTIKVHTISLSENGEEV
T1 sequence (P35348 whole entry): as above
Chain of AT2 angiotensin receptor (AT2R), untagged, rat (rat) (P35351 whole entry): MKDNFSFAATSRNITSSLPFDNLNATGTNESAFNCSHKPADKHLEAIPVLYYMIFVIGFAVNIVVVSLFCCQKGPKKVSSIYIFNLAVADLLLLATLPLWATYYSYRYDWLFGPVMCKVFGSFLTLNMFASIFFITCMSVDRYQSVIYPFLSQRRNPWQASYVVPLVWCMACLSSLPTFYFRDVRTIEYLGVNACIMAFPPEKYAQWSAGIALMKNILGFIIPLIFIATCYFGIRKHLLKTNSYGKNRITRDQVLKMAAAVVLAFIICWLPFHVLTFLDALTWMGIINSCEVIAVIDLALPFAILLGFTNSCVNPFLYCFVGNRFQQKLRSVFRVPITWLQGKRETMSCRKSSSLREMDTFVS

Row | Molecule | inhibition at 10 µM (ɑ1AAR [1]; [10]) | inhibition at 10 µM (ɑ1AAR [1]; [11]) | also measured
1 | Cc1cc(C)c(CNC(=O)c2ccc(NC(=O)C3CC3)cc2)c(=O)[nH]1 [BCC0003661] | -7.67% | -9.71% | –
2 | Cc1cc(C(=O)NCc2ccc(F)cc2)on1 [BCC0004615] | -12.9% | -13.9% | –
3 | CC(NC(=O)C1CC1C)c1ccc(-n2cncn2)cc1 (stereo not shown) [BCC0008909] | 4.15% | -0.3% | –
4 | O=C(/C=C/c1nc2ccccc2o1)N1CCC(c2c[nH]c3ccccc23)CC1 [BCC0010913, (E)-3-(1,3-Benzoxazol-2-yl)-1-[4-(1H-indol-3-yl)piperidin-1-yl]prop-2-en-1-one] | – | – | Ki (GLuc–ɑ1AAR; [12]): 2750 nM; Ki (ɑ1AAR [2]; [13]): 1840 nM
5 | Cc1ccnc(SCc2nc3ccccn3c2Br)n1 [BCC0020406] | -10.3% | -12% | –
6 | O=C(CN1CCN(CC(=O)Nc2cccc([N+](=O)[O-])c2)CC1)Nc1cccc([N+](=O)[O-])c1 [BCC0036095] | -1.4% | 3.14% | –
7 | COc1ccc(C(=O)NCCN2CCN(C(=O)c3ccc(OC)c(OC)c3)CC2)cc1OC [BCC0048283] | 0.72% | 3.82% | –
8 | CCCN1CCC(N2CCN(S(=O)(=O)c3ccc(C)cc3)CC2)CC1 [BCC0058402] | -0.92% | 2.58% | –
9 | CCC(=O)c1ccc(OCCN2CCOCC2)cc1 [BCC0059938] | -1.24% | -1.63% | –
10 | O=C(CN1CCC(n2nnc3cc(F)ccc32)CC1)N1CCc2ccccc2C1 [BCC0061678, 1-(3,4-Dihydro-1H-isoquinolin-2-yl)-2-[4-(5-fluorobenzotriazol-1-yl)piperidin-1-yl]ethanone] | – | – | Ki (GLuc–ɑ1AAR; [12]): 274 nM; Ki (ɑ1AAR [2]; [13]): 180 nM
11 | CN1CCN(C(=O)c2ccc(-n3nc(C(F)(F)F)c4c3CCCC4)cc2)CC1 [BCC0063211] | 3.59% | 4.59% | –
12 | C=CCOc1ccc2[nH]c(C)c(C(=O)OCC)c2c1 [BCC0065386] | 4.81% | 1.12% | –
13 | O=C(c1noc2c1COc1ccccc1-2)N1CCN(c2cccc(Cl)c2)CC1 [BCC0066678] | -4.28% | -2.43% | –
14 | CN1CCCCC1C#CC(O)(c1ccccc1)c1ccccc1 (stereo not shown) [BCC0068132] | – | – | plasma membrane-ligand BRET decrease (%) Replicate1 (ɑ1AAR [1]): -4,21%; plasma membrane-ligand BRET decrease (%) Replicate2 (ɑ1AAR [1]): -5,19%
15 | COc1ccc(-c2nnc(SCC(=O)Nc3cc(C)cc(C)c3)[nH]2)cc1 [BCC0072526, N-(3,5-Dimethylphenyl)-2-[[5-(4-methoxyphenyl)-1H-1,2,4-triazol-3-yl]sulfanyl]acetamide] | – | – | Ki (GLuc–ɑ1AAR; [12]): 215 nM; Ki (ɑ1AAR [2]; [13]): 86.1 nM
16 | CN(C)CCCNCc1ccc2c(c1)OCO2 [BCC0076253] | -1.24% | -0.43% | –
17 | O=C(NCCN1CCN(c2ccccc2)CC1)Nc1ccc2c(c1)OCCO2 [BCC0079473, 1-(2,3-Dihydro-1,4-benzodioxin-6-yl)-3-[2-(4-phenylpiperazin-1-yl)ethyl]urea] | – | – | Ki (GLuc–ɑ1AAR; [12]): 248 nM; Ki (ɑ1AAR [2]; [13]): 122 nM
18 | CSc1ccc(CNC2CN3CCC2CC3)cc1 (stereo not shown) [BCC0080607] | -0.99% | 2.8% | –
19 | COc1ccccc1NS(=O)(=O)c1ccc2c(c1)SC(C)C(=O)N2 (stereo not shown) [BCC0083047] | -3.44% | -2.12% | –
20 | FC(F)(F)c1cccc(OCCn2cncn2)c1 [BCC0089082] | 2.21% | 4.76% | –
21 | O=C(CN1CCC(N2CCCCC2)CC1)N1CCC2(CC1)OCCO2 [BCC0092904] | -4.89% | -1.52% | –
22 | O=C(Cn1nnc2ccccc21)N1CCC(n2c(=O)oc3ccccc32)CC1 [BCC0101075] | -4.37% | -10.8% | –
23 | Cc1cc(S(=O)(=O)NCc2ccccc2)ccc1OCC(=O)N1CCN(C)CC1 [BCC0113627] | 1.05% | -3.63% | –
24 | CC(C)(C)Nc1nnc(Sc2ncnc3sccc23)s1 [BCC0117056] | -11.6% | -0.3% | –
25 | CS(=O)(=O)Nc1c(O)ccc2c1CCCC2C1=NCCN1 (stereo not shown) [Compound A61603, A61603, reference compound] | -74% | -76% | –
26 | CC[C@H](C)[C@H](NC(=O)[C@@H]1CCCN1C(=O)[C@H](Cc1c[nH]cn1)NC(=O)[C@@H](NC(=O)[C@@H](NC(=O)[C@@H](NC(=O)[C@H](CCCNC(=N)N)NC(=O)CNC)C(C)C)[C@@H](C)CC)[C@@H](C)CC)C(=O)O [SII, [Sar^1,Ile^4,Ile^8]-angiotensin II] | – | – | IC50 (AT1R [3]; read-out: IC50_Hi, agonist binding, GLuc–PM (Fig. 2M)): 1280 nM
27 | CCOc1nc2cccc(C(=O)O)c2n1Cc1ccc(-c2ccccc2-c2nnn[nH]2)cc1 [candesartan] | – | – | IC50 (NanoLuc–AT1R; read-out: IC50_Hi): 0.52 nM; IC50 (NanoLuc–AT1R; read-out: IC50_Lo): 1 nM; IC50 (GLuc–AT1R [4]; read-out: IC50_Hi): 0.207 nM; IC50 (GLuc–AT1R [4]; read-out: IC50_Lo): 1.3 nM; IC50 (AT1R [5]; read-out: IC50_Hi): 1.29 nM; IC50 (AT1R [5]; read-out: IC50_Lo): 19.6 nM; IC50 (AT1R [3]; 1 μM TAMRA–AngII, GLuc–PM, read-out: IC50_Hi): 1.24 nM; IC50 (AT1R [3]; 1 μM TAMRA–AngII, GLuc–PM, read-out: IC50_Lo): 248000 nM; koff (GLuc–AT1R [6]): 0.00123 s⁻¹; kon (GLuc–AT1R [6]): 540000 M⁻¹ s⁻¹; koff (AT1R [7]): 0.000833 s⁻¹; kon (AT1R [7]): 278000 M⁻¹ s⁻¹
28 | COc1ccccc1OCCNCC(O)COc1cccc2[nH]c3ccccc3c12 (stereo not shown) [carvedilol, reference compound] | – | – | Ki (GLuc–ɑ1AAR): 62.7 nM; Ki (ɑ1AAR [2]): 43.8 nM
29 | [Sar^1,Ile^4,Ile^8]-angiotensin II (SII) (peptide) | – | – | IC50 of the high-affinity site (IC50 Hi) [8]: 1280 nM
30 | angiotensin II (AngII) (peptide) | – | – | IC50 [9]: 479 nM
